Test results reported in patent US20070128217A1 (priority 2003, published 2007).

What was measured:
[1] = test system: recombinant human anti-SARS-CoV antibody 03-018; type: binding; design: Binding of antibody 03-018 to linear peptides of the N protein of SARS-CoV Urbani / Binding of antibody 03-018 to looped/cyclic peptides of the N protein of SARS-CoV Urbani: unit not given here
[2] = test system: control sera (pooled serum of ten healthy LUMC hospital workers; commercial negative donor pooled serum from the Dutch bloodbank); type: binding, human; design: Binding of Control serum LUMC to linear peptides / Binding of Control serum Blood-bank to linear peptides / Binding of Control serum LUMC to looped peptides / Binding of Control Serum Blood-Bank to Looped peptides / Binding of Control serum LUMC to linear peptides of the protein M of SARS-CoV Urbani / Binding of Control serum Blood-bank to linear peptides of the protein M of SARS-CoV Urbani / Binding of Control serum LUMC to looped peptides of the protein M of SARS-CoV Urbani / Binding of Control Serum Blood-Bank to Looped peptides of the protein M of SARS-CoV Urbani: unit not given here
[3] = test system: antibodies in sera from SARS patients (sera 1a, 1b, 2, 6, 37, 62, London, SARS-yellow, SARS-green); type: binding, human; design: Binding of serum 6 to linear peptides of protein X1 of SARS-CoV Urbani / Binding of serum 37 to linear peptides of protein X1 of SARS-CoV Urbani / Binding of serum 6 to looped/cyclic peptide (PEPSCAN-ELISA) / Binding of serum 37 to looped/cyclic peptide (PEPSCAN-ELISA) / Binding of serum 37 to looped/cyclic peptides of protein X1 of SARS-CoV Urbani / Binding of serum 6 to linear peptides of protein X2 / Binding of serum 37 to linear peptides of protein X2 / Binding of serum 37 to looped/cyclic peptides of protein X2 of SARS-CoV Urbani / Binding of serum 6 to linear peptides of protein M of SARS-CoV Urbani / Binding of serum 37 to linear peptides of protein M of SARS-CoV Urbani / Binding of serum 6 to looped/cyclic peptides of protein M of SARS-CoV Urbani / Binding of serum 37 to looped/cyclic peptides of protein M of SARS-CoV Urbani / Binding of serum 6 to linear peptides of protein X3 of SARS-CoV Urbani / Binding of serum 37 to linear peptides of protein X3 of SARS-CoV Urbani / Binding of serum 37 to looped/cyclic peptides of protein X3 of SARS-CoV Urbani / Binding of serum 6 to linear peptides of protein X4 of SARS-CoV Urbani / Binding of serum 37 to linear peptides of protein X4 of SARS-CoV Urbani / Binding of serum 37 to looped/cyclic peptides of protein X4 of SARS-CoV Urbani / Binding of serum 6 to linear peptides of protein X5 of SARS-CoV Urbani / Binding of serum 37 to linear peptides of protein X5 of SARS-CoV Urbani / Binding of serum 37 to looped/cyclic peptides of protein X5 of SARS-CoV Urbani / Binding of serum 6 to linear peptides of protein N of SARS-CoV Urbani / Binding of serum 37 to linear peptides of protein N of SARS-CoV Urbani / Binding of serum 6 to linear peptide (PEPSCAN-ELISA) / Binding of serum 1a to looped/cyclic peptides of protein N of SARS-CoV Urbani / Binding of serum 1b to looped/cyclic peptides of protein N of SARS-CoV Urbani / Binding of serum 2 to looped/cyclic peptides of protein N of SARS-CoV Urbani / Binding of serum 6 to looped/cyclic peptides of protein N of SARS-CoV Urbani / Binding of serum 37 to looped/cyclic peptides of protein N of SARS-CoV Urbani / Binding of serum 62 to looped/cyclic peptides of protein N of SARS-CoV Urbani / Binding of serum London to looped/cyclic peptides of protein N of SARS-CoV Urbani / Binding of serum SARS-green to looped/cyclic peptides of protein N of SARS-CoV Urbani: unit not given here
[4] = test system: rabbit serum obtained by immunizing a rabbit with the SARS-CoV strain Frankfurt 1; type: binding; design: Binding of a rabbit serum to linear peptides / Binding of a rabbit serum to looped peptides / Rabbit serum linear peptides / Rabbit serum looped peptides / Binding of a rabbit serum to linear peptides of protein N of SARS-CoV Urbani (Rabbit serum linear peptides) / Binding of a rabbit serum to looped/cyclic peptides of protein N of SARS-CoV Urbani (Rabbit serum looped peptides): unit not given here

## NQRSAPRITFGGPTD
[1]
  Recognition of the peptide by antibody 03-018: recognized
[2]
  Binding of Control Serum Blood-Bank to Looped peptides: 0.6
  Binding of Control serum Blood-bank to linear peptides: 0.6
  Binding of Control serum LUMC to linear peptides: 0.5
  Binding of Control serum LUMC to looped peptides: 0.7
[3]
  Binding of serum 1a to linear peptides of protein N of SARS-CoV Urbani: 0.2
  Binding of serum 1a to looped/cyclic peptides of protein N of SARS-CoV Urbani: 0.4
  Binding of serum 1b to linear peptides of protein N of SARS-CoV Urbani: 0.1
  Binding of serum 1b to looped/cyclic peptides of protein N of SARS-CoV Urbani: 0.3
  Binding of serum 2 to linear peptides of protein N of SARS-CoV Urbani: 0.1
  Binding of serum 2 to looped/cyclic peptides of protein N of SARS-CoV Urbani: 0.4
  Binding of serum 6 to linear peptides of protein N of SARS-CoV Urbani: 0.1
  Binding of serum 6 to looped/cyclic peptides of protein N of SARS-CoV Urbani: 0.2
  Binding of serum 37 to linear peptides of protein N of SARS-CoV Urbani: 0.7
  Binding of serum 37 to looped/cyclic peptides of protein N of SARS-CoV Urbani: 0.6
  Binding of serum 62 to linear peptides of protein N of SARS-CoV Urbani: 0.6
  Binding of serum 62 to looped/cyclic peptides of protein N of SARS-CoV Urbani: 0.4
  Binding of serum London to linear peptides of protein N of SARS-CoV Urbani: 0.5
  Binding of serum London to looped/cyclic peptides of protein N of SARS-CoV Urbani: 0.4
  Binding of serum SARS-green to linear peptides of protein N of SARS-CoV Urbani: 0.3
  Binding of serum SARS-green to looped/cyclic peptides of protein N of SARS-CoV Urbani: 0.5
  Binding of serum SARS-yellow to linear peptides of protein N of SARS-CoV Urbani: 0.5
  Binding of serum SARS-yellow to looped/cyclic peptides of protein N of SARS-CoV Urbani: 0.7
[4]
  Binding of a rabbit serum to linear peptides of protein N of SARS-CoV Urbani (Rabbit serum linear peptides): 0.3
  Binding of a rabbit serum to looped/cyclic peptides of protein N of SARS-CoV Urbani (Rabbit serum looped peptides): 0.4

## NTASWFTALTQHGKE
[1]
  Binding of antibody 03-018 to linear peptides of the N protein of SARS-CoV Urbani: 0.1
  Binding of antibody 03-018 to looped/cyclic peptides of the N protein of SARS-CoV Urbani: 0.2
[2]
  Binding of Control Serum Blood-Bank to Looped peptides: 0.5
  Binding of Control serum Blood-bank to linear peptides: 0.5
  Binding of Control serum LUMC to linear peptides: 0.6
  Binding of Control serum LUMC to looped peptides: 0.4
[3]
  Binding of serum 1a to linear peptides of protein N of SARS-CoV Urbani: 0.2
  Binding of serum 1a to looped/cyclic peptides of protein N of SARS-CoV Urbani: 0.2
  Binding of serum 1b to linear peptides of protein N of SARS-CoV Urbani: 0.1
  Binding of serum 1b to looped/cyclic peptides of protein N of SARS-CoV Urbani: 0.2
  Binding of serum 2 to linear peptides of protein N of SARS-CoV Urbani: 0.1
  Binding of serum 2 to looped/cyclic peptides of protein N of SARS-CoV Urbani: 0.2
  Binding of serum 6 to linear peptides of protein N of SARS-CoV Urbani: 0.1
  Binding of serum 6 to looped/cyclic peptides of protein N of SARS-CoV Urbani: 0.1
  Binding of serum 37 to linear peptides of protein N of SARS-CoV Urbani: 0.7
  Binding of serum 37 to looped/cyclic peptides of protein N of SARS-CoV Urbani: 0.4
  Binding of serum 62 to linear peptides of protein N of SARS-CoV Urbani: 0.5
  Binding of serum 62 to looped/cyclic peptides of protein N of SARS-CoV Urbani: 0.3
  Binding of serum London to linear peptides of protein N of SARS-CoV Urbani: 0.4
  Binding of serum London to looped/cyclic peptides of protein N of SARS-CoV Urbani: 0.3
  Binding of serum SARS-green to linear peptides of protein N of SARS-CoV Urbani: 0.4
  Binding of serum SARS-green to looped/cyclic peptides of protein N of SARS-CoV Urbani: 0.3
  Binding of serum SARS-yellow to linear peptides of protein N of SARS-CoV Urbani: 0.5
  Binding of serum SARS-yellow to looped/cyclic peptides of protein N of SARS-CoV Urbani: 0.3
[4]
  Binding of a rabbit serum to linear peptides of protein N of SARS-CoV Urbani (Rabbit serum linear peptides): 0.1
  Binding of a rabbit serum to looped/cyclic peptides of protein N of SARS-CoV Urbani (Rabbit serum looped peptides): 0.1
